The test system of one assay is Plasma. In words: Anticoagulant activity in human plasma assessed as concentration required to double prothrombin-based clotting time. The assay is classed as functional.
For another assay, the target named is Coagulation factor X (Homo sapiens, UniProt P00742). In words: Inhibition of human factor 10a.

By IC50 is commonly meant the midpoint of a concentration-inhibition curve. A low value points to inhibition by little substance.

The structures appear in SMILES notation.

Chain of Coagulation factor X (P00742 41-179 limits assumed): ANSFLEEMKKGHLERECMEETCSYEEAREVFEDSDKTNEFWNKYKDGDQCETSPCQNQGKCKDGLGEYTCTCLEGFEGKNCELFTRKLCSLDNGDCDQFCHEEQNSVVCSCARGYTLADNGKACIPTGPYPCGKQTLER
Chain of Coagulation factor X (P00742 235-488 limits assumed): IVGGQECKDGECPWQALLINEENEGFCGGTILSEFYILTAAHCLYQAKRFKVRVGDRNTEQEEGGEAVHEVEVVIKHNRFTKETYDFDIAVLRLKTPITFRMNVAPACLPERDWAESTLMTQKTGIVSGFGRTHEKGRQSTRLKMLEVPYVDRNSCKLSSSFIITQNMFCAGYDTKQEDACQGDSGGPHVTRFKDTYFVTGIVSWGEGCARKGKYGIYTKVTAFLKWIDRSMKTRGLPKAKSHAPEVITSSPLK

Consider `COc1ccc(N/C(=N\C(=O)C2CCN(C(=O)c3ccccc3)CC2)N[C@H]2CCCCN(CC(=O)N3CCCC3)C2=O)cc1`, for which the Activity in the assay on Plasma was 48 µM. Further, inhibition against Coagulation factor X was half-maximal at 506 nM (IC50). As for `Cc1cc2cc(N/C(=N\C(=O)C3CCN(C(=O)c4ccccc4)CC3)N[C@H]3CCCCN(CC(=O)N4CCCC4)C3=O)ccc2o1`, the Activity with Plasma worked out at 7.5 µM. Besides, 10 nM corresponded to half-maximal inhibition at Coagulation factor X (IC50). For `Cc1cc2cc(N/C(=N\C(=O)c3sc(C)nc3C)N[C@H]3CCCCN(CC(=O)N4CCCC4)C3=O)ccc2o1`, in that order: 42 µM and 17 nM. `COc1ccc(NC(=N[C@H]2CCCCN(CC(=O)N3CCCC3)C2=O)NC(=O)c2ccc(N(C)C)cc2)cc1` displayed an IC50 on Coagulation factor X of 403 nM. That is a sub-micromolar value. `COc1ccc(NC(=N[C@H]2CCCCN(CC(=O)N3CCCC3)C2=O)NC(=O)c2cc(OC)cc(OC)c2)cc1` displayed an IC50 on Coagulation factor X of 872 nM. Consider `Cc1cc2cc(N/C(=N\C(=O)c3ccccc3)N[C@H]3CCCCN(CC(=O)N4CCCC4)C3=O)ccc2o1`, for which, in the assay with Plasma, the Activity is 48 µM. Consider `COc1ccc(NC(=N[C@H]2CCCCN(CC(=O)N3CCCC3)C2=O)NC(=O)c2ccc(F)c(F)c2)cc1`, for which 272 nM corresponded to half-maximal inhibition against Coagulation factor X (IC50). As to `Cc1cccc(N/C(=N\C(=O)c2sc(C)nc2C)N[C@H]2CCCCN(CC(=O)N3CCCC3)C2=O)c1`, the Activity in the assay on Plasma is more than 50 µM. In addition, the IC50 against Coagulation factor X came to 462 nM. In turn, `COc1ccc(N/C(=N\C(=O)c2cccc(OC)c2)N[C@H]2CCCCN(CC(=O)N3CCCC3)C2=O)cc1` gave an IC50 on Coagulation factor X of 193 nM. Same read-out and setting: next, `Cc1cccc(NC(=N[C@H]2CCCCN(CC(=O)N3CCCC3)C2=O)NC(=O)c2cccc(F)c2)c1`: 373 nM. The same measure, in the same setting: next, `Cc1cccc(N/C(=N\C(=O)c2ccc(F)cc2)N[C@H]2CCCCN(CC(=O)N3CCCC3)C2=O)c1`: 222 nM; `Cc1cccc(NC(=N[C@H]2CCCCN(CC(=O)N3CCCC3)C2=O)NC(=O)c2ccc(N(C)C)cc2)c1`: 517 nM. For `COc1ccc(NC(=N[C@H]2CCCCN(CC(=O)N3CCCC3)C2=O)NC(=O)c2ccc(Cl)cc2)cc1`, on Coagulation factor X, the IC50 was 294 nM. Same read-out and setting: next, `COc1ccc(NC(=N[C@H]2CCCCN(CC(=O)N3CCCC3)C2=O)NC(=O)c2cc(Cl)cc(Cl)c2)cc1`: 546 nM. For `COc1ccc(NC(=N[C@H]2CCCCN(CC(=O)N3CCCC3)C2=O)NC(=O)c2ccccc2)cc1`, on Coagulation factor X, half-maximal inhibition (IC50) required 246 nM.

At Coagulation factor X, `Cc1cccc(NC(=N[C@H]2CCCCN(CC(=O)N3CCCC3)C2=O)NC(=O)c2ccc(F)c(F)c2)c1` showed an IC50 of 271 nM. Same read-out and setting: next, `COc1ccc(NC(=N[C@H]2CCCCN(CC(=O)N3CCCC3)C2=O)NC(=O)c2cccc(Cl)c2)cc1`: 267 nM; `COc1ccc(C(=O)NC(=N[C@H]2CCCCN(CC(=O)N3CCCC3)C2=O)Nc2cccc(C)c2)cc1OC`: 400 nM; `Cc1cccc(NC(=N[C@H]2CCCCN(CC(=O)N3CCCC3)C2=O)NC(=O)c2ccccc2)c1`: 245 nM. On to `Cc1cccc(N/C(=N\C(=O)c2ccno2)N[C@H]2CCCCN(CC(=O)N3CCCC3)C2=O)c1`, for which the Activity with Plasma amounted to 50 µM. This molecule yielded an IC50 against Coagulation factor X of 628 nM. As for `Cc1cccc(N/C(=N\C(=O)c2ccc(Cl)cc2)N[C@H]2CCCCN(CC(=O)N3CCCC3)C2=O)c1`, the IC50 against Coagulation factor X was 198 nM.

Take `COc1cc(OC)cc(C(=O)/N=C(\Nc2cccc(C)c2)N[C@H]2CCCCN(CC(=O)N3CCCC3)C2=O)c1`: inhibition against Coagulation factor X was half-maximal at 1160 nM (IC50). Compared with the last molecule, the IC50 is about 5.9-fold higher. The same measure, in the same setting: the same measure for `COc1cccc(C(=O)NC(=N[C@H]2CCCCN(CC(=O)N3CCCC3)C2=O)Nc2cccc(C)c2)c1`: 276 nM. With `Cc1cc2cc(N/C(=N\C(=O)c3ccno3)N[C@H]3CCCCN(CC(=O)N4CCCC4)C3=O)ccc2o1`, the Activity in the assay with Plasma was 17.7 µM. Further, half-maximal inhibition against Coagulation factor X (IC50) required 14 nM. Taken in the same sequence, the figures for `Cc1cccc(N/C(=N\C(=O)C2CCN(C(=O)c3ccccc3)CC2)N[C@H]2CCCCN(CC(=O)N3CCCC3)C2=O)c1` were more than 50 µM and 1070 nM.

Regarding `COc1ccc(N/C(=N\C(=O)c2sc(C)nc2C)N[C@H]2CCCCN(CC(=O)N3CCCC3)C2=O)cc1`, the Activity in the assay with Plasma is more than 50 µM. This molecule showed an IC50 against Coagulation factor X of 386 nM. Turning to `COc1ccc(N/C(=N\C(=O)c2ccc(OC)cc2)N[C@H]2CCCCN(CC(=O)N3CCCC3)C2=O)cc1`, at Coagulation factor X, the IC50 is 227 nM. That is a sub-micromolar value. Same read-out and setting: next, `Cc1cccc(NC(=N[C@H]2CCCCN(CC(=O)N3CCCC3)C2=O)NC(=O)c2cc(Cl)cc(Cl)c2)c1`: 835 nM; `COc1ccc(NC(=N[C@H]2CCCCN(CC(=O)N3CCCC3)C2=O)NC(=O)c2cc(F)cc(F)c2)cc1`: 208 nM. For the molecule `COc1ccc(N/C(=N\C(=O)c2ccno2)N[C@H]2CCCCN(CC(=O)N3CCCC3)C2=O)cc1`, the Activity with Plasma worked out at 45 µM. The molecule further had an IC50 on Coagulation factor X of 380 nM.

At Coagulation factor X, `Cc1cccc(NC(=N[C@H]2CCCCN(CC(=O)N3CCCC3)C2=O)NC(=O)c2cccc(Cl)c2)c1` showed an IC50 of 371 nM.

For the molecule `COc1ccc(C(=O)NC(=N[C@H]2CCCCN(CC(=O)N3CCCC3)C2=O)Nc2cccc(C)c2)cc1`, at Coagulation factor X, it took 709 nM to reach half-maximal inhibition (IC50). The same measure, in the same setting: the same measure for `COc1ccc(NC(=N[C@H]2CCCCN(CC(=O)N3CCCC3)C2=O)NC(=O)c2cccc(F)c2)cc1`: 256 nM; for `COc1ccc(N/C(=N\C(=O)c2ccc(F)cc2)N[C@H]2CCCCN(CC(=O)N3CCCC3)C2=O)cc1`: 368 nM; for `Cc1cccc(NC(=N[C@H]2CCCCN(CC(=O)N3CCCC3)C2=O)NC(=O)c2cc(F)cc(F)c2)c1`: 396 nM. Still for that read-out and setting: next, `COc1ccc(N/C(=N\C(=O)c2ccc(OC)c(OC)c2)N[C@H]2CCCCN(CC(=O)N3CCCC3)C2=O)cc1`: 494 nM.

For the origin of these results see ChEMBL document CHEMBL1155925, “Synthesis and evaluation of acylguanidine FXa inhibitors” (Bioorg Med Chem Lett, 2008).
